Usually inhibition in vivo stands for the change of the read-out against control, counted positive when it falls. In general, IC50 refers to the concentration needed to halve the response being measured. Low readings indicate greater potency in that assay, high ones weaker potency in that assay. The MRT is a mean duration of stay, worked out from the concentration-time curve. As a reminder, the Tmax is the time at which the peak concentration occurs. As usually defined, the EC50 is the concentration needed to bring the measured effect to its halfway point. The low end stands for greater potency, the high end for weaker potency.

Activity calls are given as the source filed them. The calls are words filed in the database; no cut-off is given here. Where only a bound is given, the exact number is not on record here.

Results on one compound are retold here after ChEMBL document CHEMBL4177573 (Bioorg Med Chem, 2017).

Series [1] deals with Mus musculus. Nature of the series: Anorectic activity in C57BL/6J mouse assessed as inhibition of food intake at 0.3 mg/kg/day, sc dosed as […] and measured after 12 hrs. The series is classed as functional.
Series [2] deals with T1, Neuropeptide Y receptor type 2 (Homo sapiens, UniProt P49146).
T1 sequence (P49146 whole entry): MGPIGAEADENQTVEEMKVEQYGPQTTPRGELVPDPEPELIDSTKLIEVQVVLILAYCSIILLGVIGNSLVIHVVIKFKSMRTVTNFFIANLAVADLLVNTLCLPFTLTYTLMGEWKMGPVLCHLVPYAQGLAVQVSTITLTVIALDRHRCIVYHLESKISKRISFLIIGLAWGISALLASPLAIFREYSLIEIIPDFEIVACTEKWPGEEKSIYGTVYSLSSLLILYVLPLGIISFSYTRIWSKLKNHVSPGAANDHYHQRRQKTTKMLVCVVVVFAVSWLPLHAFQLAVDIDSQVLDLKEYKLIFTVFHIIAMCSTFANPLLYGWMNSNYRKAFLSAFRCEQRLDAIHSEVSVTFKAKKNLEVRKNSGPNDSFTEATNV
Nature of the series: Displacement of [125I]-PYY from human neuropeptide Y2 receptor expressed in CHO cell membranes incubated for 60 mins by TopCount based method.

Series [3] can be described thus: MRT in C57BL/6J mouse at 1 mg/kg, iv measured during 5 mins to 24 hrs by LC/MS/MS method. The series is classed as ADME, organism-based. The conditions noted are these: in vivo.
Series [4] concerns Mus musculus. Put plainly: Anorectic activity in DIO C57BL/6J mouse assessed as reduction in cumulative food intake at 0.03 mg/kg, sc for 2 weeks dosed as continuous administration by infusion of osmotic pumps relative to untreated control. The series is classed as functional, organism-based.
A short description of series [5]: Tmax in C57BL/6J mouse at 1 mg/kg, sc measured during 5 mins to 24 hrs by LC/MS/MS method. The format is ADME, organism-based. The conditions noted are these: in vivo.
Series [6] addresses T2, Neuropeptide Y receptor type 1 (Homo sapiens, UniProt P25929).
T2 sequence (P25929 whole entry): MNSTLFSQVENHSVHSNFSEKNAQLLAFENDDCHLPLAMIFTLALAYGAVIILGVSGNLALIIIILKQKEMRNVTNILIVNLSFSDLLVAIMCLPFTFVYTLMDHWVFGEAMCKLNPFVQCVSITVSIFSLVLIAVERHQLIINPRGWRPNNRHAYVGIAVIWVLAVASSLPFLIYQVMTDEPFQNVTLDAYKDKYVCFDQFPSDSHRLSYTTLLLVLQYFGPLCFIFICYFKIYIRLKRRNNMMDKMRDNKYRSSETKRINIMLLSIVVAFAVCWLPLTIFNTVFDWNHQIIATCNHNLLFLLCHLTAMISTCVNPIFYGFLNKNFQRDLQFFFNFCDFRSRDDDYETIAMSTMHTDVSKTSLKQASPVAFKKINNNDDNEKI
Nature of the series: Agonist activity at human neuropeptide Y1 receptor by [35S]GTPgammaS binding assay. The series is classed as functional. For orientation: GTPγS resists hydrolysis and so accumulates on activated G proteins.

Take `CC[C@](C)(NC(=O)[C@H]1C[C@H](O)CN1C(=O)[C@H](CO)NC(=O)c1c[nH]cn1)C(=O)N[C@@H](Cc1ccncc1)C(=O)N[C@@H](CC1CCCCC1)C(=O)N[C@@H](CC(C)(C)C)C(=O)N[C@@H](CC(N)=O)C(=O)N[C@@H](CCCCN)C(=O)NC(C)(C)C(=O)N[C@H](C(=O)N[C@@H](CCCNC(=N)N)C(=O)N[C@@H](CCC(N)=O)C(=O)N[C@@H](CCCNC(=N)N)C(=O)N[C@@H](CC1CCCCC1)C(N)=O)[C@@H](C)O`: in series [1], the inhibition in vivo at 0.3 mg/kg/day stood at 41%. Also, in series [2], the concentration for half-maximal inhibition (IC50) worked out at 0.31 nM. In addition, the mean residence time (MRT) in series [3] stood at 21 min. Also, the outcome in series [4] was Active. Further, the time of peak concentration (Tmax) in series [5] was found to be 10.2 min. The compound further displayed an EC50 in series [6] of over 1000 nM.
